Measured values taken from BigSolDB 2.1.

`CCOC(=O)c1ccc(N)cc1` showed a solubility (mole fraction) (in cyclohexane, 298.15 K) of 0.00107, a solubility (mole fraction) (in cyclohexane, 303.15 K) of 0.00134 and a solubility (mole fraction) (in cyclohexane, 308.15 K) of 0.00185. For the same molecule, the solubility (mole fraction) (in cyclohexane, 313.15 K) was 0.00225, the solubility (mole fraction) (in isopropyl myristate, 298.15 K) was 0.0637 and the solubility (mole fraction) (in isopropyl myristate, 303.15 K) was 0.0764. For the same molecule, the solubility (mole fraction) (in isopropyl myristate, 308.15 K) was 0.102, the solubility (mole fraction) (in isopropyl myristate, 313.15 K) was 0.121 and the solubility (mole fraction) (in n-octanol, 298.15 K) was 0.0628. For the same molecule, the solubility (mole fraction) (in n-octanol, 303.15 K) was 0.0753, the solubility (mole fraction) (in n-octanol, 308.15 K) was 0.0916 and the solubility (mole fraction) (in n-octanol, 313.15 K) was 0.113. For the same molecule, the solubility (mole fraction) (in water, 298.15 K) was 0.000105, the solubility (mole fraction) (in water, 303.15 K) was 0.000126 and the solubility (mole fraction) (in water, 308.15 K) was 0.000159. It also gave a solubility (mole fraction) (in water, 313.15 K) of 0.000186.
